{"source": "paper PMC6271500", "about": "“Bowman-Birk Protease Inhibitor from Vigna unguiculata Seeds Enhances the Action of Bradykinin-Related Peptides” (Molecules, 2014)", "key": {"[1]": {"target": "Bk1, [Val]1[Thr]6-bradykinyl-Val-Asp relative to bradykinin: R1V;S6T; C-terminal extension Val10-Asp11", "assay": "Intrinsic tryptophan (Trp82) fluorescence quenching titration; excitation 295 nm, emission 300-400 nm (analysed at 355 nm)", "conditions": "25 °C, not stated for the fluorescence assays at pH 5.0, 7.4 and 9.0 (2 mM Tris-HCl pH 7.4 is given only for DLS and CD)"}, "[2]": {"target": "Bk2, [Val]1[Thr]6-bradykinyl-Gln-Ser relative to bradykinin: R1V;S6T; C-terminal extension Gln10-Ser11", "assay": "Intrinsic tryptophan (Trp82) fluorescence quenching titration; excitation 295 nm, emission 300-400 nm (analysed at 355 nm)", "conditions": "25 °C, not stated for the fluorescence assays at pH 5.0, 7.4 and 9.0 (2 mM Tris-HCl pH 7.4 is given only for DLS and CD)"}, "Bradykinin (Bk)": {"target": "Bradykinin (Bk) (UniProt P01042)", "sequence (P01042 whole entry, looked up)": "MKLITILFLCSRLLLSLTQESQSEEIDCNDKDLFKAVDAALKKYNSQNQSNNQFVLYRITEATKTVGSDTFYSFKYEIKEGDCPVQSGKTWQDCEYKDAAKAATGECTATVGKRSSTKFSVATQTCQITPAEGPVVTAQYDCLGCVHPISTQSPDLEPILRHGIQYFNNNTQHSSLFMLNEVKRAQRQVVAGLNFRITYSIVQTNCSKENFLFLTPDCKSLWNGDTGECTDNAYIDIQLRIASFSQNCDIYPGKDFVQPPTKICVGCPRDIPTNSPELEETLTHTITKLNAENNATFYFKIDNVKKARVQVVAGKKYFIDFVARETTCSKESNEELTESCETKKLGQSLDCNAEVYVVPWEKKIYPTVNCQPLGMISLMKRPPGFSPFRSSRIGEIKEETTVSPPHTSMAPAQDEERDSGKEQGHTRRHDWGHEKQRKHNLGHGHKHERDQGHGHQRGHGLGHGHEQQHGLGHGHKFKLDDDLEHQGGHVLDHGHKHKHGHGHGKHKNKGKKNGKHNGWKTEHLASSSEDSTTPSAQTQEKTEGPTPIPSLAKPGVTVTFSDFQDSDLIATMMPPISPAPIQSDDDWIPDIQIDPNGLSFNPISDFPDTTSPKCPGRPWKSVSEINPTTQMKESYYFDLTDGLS", "assay": "Intrinsic tryptophan (Trp82) fluorescence quenching titration; excitation 295 nm, emission 300-400 nm (analysed at 355 nm)", "conditions": "25 °C, not stated for the fluorescence assays at pH 5.0, 7.4 and 9.0 (2 mM Tris-HCl pH 7.4 is given only for DLS and CD)"}, "[3]": {"assay": "Dynamic light scattering, free peptides and free BTCI", "assay_type": "physicochemical", "conditions": "25 µM, 2 mM Tris-HCl pH 7.4, 37 °C", "experimental": "(§1) The hydrodynamic properties of the BTCI through the complex formation with Bk and analogues were monitored using DLS technique with laser source operated at 800 nm on the DynaPro LSR model (Wyatt Technology Corporation, Santa Barbara, CA, USA). The internal temperature was controlled by a Peltier system coupled to the detector. The Bk, Bk-related peptides, BTCI and BTCI-Bk, BTCI-Bk-related peptides complexes, were incubated for 30 minutes in 2 mM Tris-HCl pH 7.4 and then centrifuged at 5000 g and filtered ([…]) before the DLS experiments. The average of 100 acquisitions for each measure was considered for BTCI (25 µM) and synthetic Bk-related peptides (25 µM) separately and subsequently for the BTCI-Bk complexes (1:1). The formation of complexes was analyzed at 37 °C, considering the relationship of the scattered light intensity signal and the hydrodynamic diameter of the samples, using the Dynamics V6 program (Wyatt Technology Corporation)."}, "BTCI [4]": {"system": "BTCI", "assay": "Dynamic light scattering, BTCI-Bk complex formation", "assay_type": "binding, Vigna unguiculata", "conditions": "BTCI 25 µM : peptide 25 µM (1:1), 30 min, 2 mM Tris-HCl pH 7.4, 37 °C", "experimental": "as §1"}, "BTCI [5]": {"system": "BTCI", "assay": "Fluorescence quenching of BTCI by Bk-related peptides", "assay_type": "binding, Vigna unguiculata", "conditions": "for Binding constant Kb (association) of BTCI in complex with peptide / Stern-Volmer quenching constant KSV of BTCI in complex with peptide: BTCI 25 µM, peptide 25-500 µM; for Stern-Volmer quenching constant KSV of BTCI in complex with peptide: excitation 295 nm, emission at 355 nm", "experimental": "Fluorescence measurements were performed at pH 5.0, 7.4 and 9.0 and 25 °C using the Jasco FP-6500 spectrofluorimeter (Jasco Analytical Instruments) coupled to a Jasco ETC-273T Peltier system (Jasco Analytical Instruments) with water circulation. Both excitation and emission slit were fitted to 5.0 nm and the excitation and emission wavelength were 295 nm and 300–400 nm, respectively. The concentration of BTCI was 25 µM, whereas the concentration of Bk and Bk-related peptides varied from 25 to 500 µM. The BTCI in complex with peptides were investigated by fluorescence quenching as a function of pH. The averages of five fluorescence spectra were recorded and processed by the program Spectra Manager (Jasco Analytical Instruments). The fluorescence emissions were fitted according to the classic Stern-Volmer equation (Equation (2)): F0/F = 1 + KSV[Q] (2) where F and F0 are the fluorescence intensities in the presence and absence of quencher, respectively, KSV is Stern-Volmer constant and Q is the concentration of the quencher.\nThe binding constants for BTCI, Bk and Bk-related peptides interaction were calculated according to Equation (3): Log[(F0 − F)/F] = LogKb + nLog[Q] (3) where Kb is the binding constant and n is the number of binding sites per BTCI [47]."}, "[6]": {"system": "guinea pig (Cavia porcellus) ileum", "assay": "Smooth muscle constriction force assay, guinea pig ileum", "experimental": "Male guinea pigs (Cavia porcellus) weighing between 200 and 300 g and fasted for 24 h were euthanized using an overdose of anesthetic at 120 mg/kg (ketamine and xylazine). The protocol was approved by the Committee on the Ethics of Animal Experiments of the Institute of Biology, University of Brasilia (Proc. Number 737402/2008). Segments of 2 cm from the terminal portion of the ileum were removed and washed in Tyrode’s solution (g/L: 8.00 NaCl,0.20 KCl, 0.20 CaCl2, 0.21 MgCl2), and attached to a glass rod that was immersed in a physiological bath chamber with a capacity of 10 mL containing Tyrode solution at 37 °C. In the opposite region, a thread of silk was attached to the F-60 isometric transducer connected to a polygraph (NARCO Bio-Systems, Houston, TX, USA). The bath was kept aerated constantly with carbogen (95% O2 + 5% CO2). Previously, as a control, smooth muscle response was analyzed using Bk from Sigma Aldrich. Experiments were done in triplicate, and constriction force was analyzed by addition of Bk and analogues in the absence or presence of BTCI, in three concentrations: 1, 5 or 10 µM. The hypotensive effects of the complexes were also evaluated in the presence of trypsin or chymotrypsin. After each experiment, the bath solution was exchanged three times in order to remove the drug used. Statistical analysis was carried out using the Paleontological Statistics (PAST) Software Package for Education and Data Analysis. A value of Student’s t-test p < 0.05 was considered to denote a significant difference."}, "[7]": {"assay": "Cardiovascular effects of infusion of Bk and Bk-related peptides with BTCI or vehicle in anesthetized rats", "assay_type": "in vivo, male Wistar rats", "conditions": "for aortic vasodilation (change in AVC) / change in mean arterial pressure (MAP) / renal vasodilation (change in RVC): from the baseline value, mean ± SEM, 6 experiments", "experimental": "All experiments were conducted on adult male Wistar rats (280–350 g). They were obtained from the central animal house of the Federal University of Goiás. Experimental procedures were designed with strict adherence to the National Health Institute Guidelines for Care and Use of Laboratory Animals as approved by the Ethics Committee, Federal University of Goiás (034/12).\nOn the day of experiments, the rats were anesthetized with halothane (2%–3% in 100% O2; Cristália Ltda, Itapira, SP, Brazil) prior to the catheterization of the right femoral vein and artery. After the catheter placement, the rats were removed from the halothane and the anesthesia was maintained with urethane (1.2 g·kg^−1 b.wt., i.v.; Sigma-Aldrich Co.). The trachea was cannulated to reduce airway resistance. The body temperature was kept at 37 ± 0.5 °C with a thermostatically controlled heated table.\nRenal blood flow (RBF) and aortic blood flow (ABF) were measured with an ultrasonic transit-time flowmeter (Transonic Systems, Inc., Ithaca, NY, USA). Data were recorded continuously with an analog-to-digital converter (PowerLab 4/25, ML845, AD Instruments, Bella Vista, Australia). Mean arterial pressure (MAP) was determined from the pulsatile signal. Aortic vascular conductance (AVC) and renal vascular conductance (RVC) were calculated by a ratio of ABF and RBF divided by MAP, and were expressed as percentage of baseline. Increasing doses of BTCI (0.3, 3, 30 and 300 µg·kg^−1, i.v.) were infused.\nResults are presented as means ± S.E.M. The effects of infusion of Bk, Bk-related peptides and BTCI on cardiovascular parameters were analyzed by one-way ANOVA. […] A value of Student’s t-test p < 0.05 was considered to denote a significant difference."}, "trypsin": {"system": "trypsin", "assay": "Pretreatment of peptides with trypsin", "assay_type": "in vitro ADME"}, "[8]": {"conditions": "peptide 120 µg·kg^−1 + BTCI 3 µg·kg^−1, i.v."}, "[9]": {"conditions": "peptide 120 µg·kg^−1 i.v. + BTCI 3 µg·kg^−1 i.v."}, "[10]": {"conditions": "peptide 120 µg·kg^−1 i.v., without BTCI"}}, "note": "Where no end group is shown, it is not given here.", "data": [{"substance": "Black-eyed pea trypsin and chymotrypsin inhibitor (BTCI), Bowman-Birk inhibitor", "values": [{"measurement": "Kb", "setting": "[1]; pH 5.0", "value": "0.84 ×10^3 M^−1"}, {"measurement": "Kb", "setting": "[1]; pH 7.4", "value": "1.02 ×10^3 M^−1"}, {"measurement": "Kb", "setting": "[1]; pH 9.0", "value": "0.23 ×10^3 M^−1"}, {"measurement": "Kb", "setting": "[2]; pH 5.0", "value": "0.59 ×10^3 M^−1"}, {"measurement": "Kb", "setting": "[2]; pH 7.4", "value": "0.22 ×10^3 M^−1"}, {"measurement": "Kb", "setting": "[2]; pH 9.0", "value": "1.81 ×10^3 M^−1"}, {"measurement": "Kb", "setting": "Bradykinin (Bk); pH 5.0", "value": "0.21 ×10^3 M^−1"}, {"measurement": "Kb", "setting": "Bradykinin (Bk); pH 7.4", "value": "9.68 ×10^3 M^−1"}, {"measurement": "Kb", "setting": "Bradykinin (Bk); pH 9.0", "value": "0.71 ×10^3 M^−1"}]}, {"substance": "Bradykinin [Bk, reference compound]", "values": [{"measurement": "polydispersity, peptide", "setting": "[3]", "value": "lower than 0.15"}, {"measurement": "hydrodynamic diameter of BTCI in the presence of peptide", "setting": "BTCI [4]", "value": "increased from 1.7 nm to 3.3 nm"}, {"measurement": "binding sites (n) per BTCI molecule", "setting": "BTCI [5]; pH 5.0, 25 °C", "value": 0.88}, {"measurement": "Binding constant Kb (association) of BTCI in complex with peptide", "setting": "BTCI [5]; pH 5.0, 25 °C", "value": 210, "unit": "M⁻¹"}, {"measurement": "Stern-Volmer quenching constant KSV of BTCI in complex with peptide", "setting": "BTCI [5]; pH 5.0, 25 °C", "value": 502, "unit": "M⁻¹"}, {"measurement": "binding sites (n) per BTCI molecule", "setting": "BTCI [5]; pH 7.4, 25 °C", "value": 1.39}, {"measurement": "Binding constant Kb (association) of BTCI in complex with peptide", "setting": "BTCI [5]; pH 7.4, 25 °C", "value": 9680, "unit": "M⁻¹"}, {"measurement": "Stern-Volmer quenching constant KSV of BTCI in complex with peptide", "setting": "BTCI [5]; pH 7.4, 25 °C", "value": 553, "unit": "M⁻¹"}, {"measurement": "binding sites (n) per BTCI molecule", "setting": "BTCI [5]; pH 9.0, 25 °C", "value": 1.06}, {"measurement": "Binding constant Kb (association) of BTCI in complex with peptide", "setting": "BTCI [5]; pH 9.0, 25 °C", "value": 710, "unit": "M⁻¹"}, {"measurement": "Stern-Volmer quenching constant KSV of BTCI in complex with peptide", "setting": "BTCI [5]; pH 9.0, 25 °C", "value": 468, "unit": "M⁻¹"}, {"measurement": "fluorescence intensity of BTCI (Trp^82) on addition of peptide", "setting": "BTCI [5]; peptide 25 to 500 µM", "value": "progressive decrease in fluorescence intensity"}, {"measurement": "effect of BTCI on Bk-induced smooth muscle contraction", "setting": "[6]; Bk 5.0 µM", "value": "slightly increased the smooth muscle contraction"}, {"measurement": "effect of BTCI on Bk-induced smooth muscle contraction", "setting": "[6]; Bk 10.0 µM", "value": "the same effect only when BTCI inhibited trypsin"}, {"measurement": "smooth muscle contraction", "setting": "[6]; free peptide, 1, 5, 10 µM, 37 °C, triplicate", "value": "able to induce smooth muscle contraction in a concentration-responsive manner"}, {"measurement": "smooth muscle contraction in association with BTCI in the presence of serine proteases", "setting": "[6]; with BTCI and trypsin or chymotrypsin, 1.0, 5.0, 10.0 µM", "value": "able to induce smooth muscle contraction in a concentration-responsive manner even in association with BTCI in the presence of serine proteases"}, {"measurement": "effect of association with BTCI on aortic vasodilation", "setting": "[7]; [8]", "value": "potentiated"}, {"measurement": "effect of association with BTCI on renal vasodilation", "setting": "[7]; [8]", "value": "potentiated renal"}, {"measurement": "aortic vasodilation (change in AVC)", "setting": "[7]; [9]", "value": "16 ± 1.4", "unit": "%"}, {"measurement": "change in mean arterial pressure (MAP)", "setting": "[7]; [9]", "value": "−10 ± 1.1", "unit": "mmHg"}, {"measurement": "renal vasodilation (change in RVC)", "setting": "[7]; [9]", "value": "12 ± 1.1", "unit": "%"}, {"measurement": "aortic vasodilation (change in AVC)", "setting": "[7]; [10]", "value": "9 ± 1.6", "unit": "%"}, {"measurement": "change in mean arterial pressure (MAP)", "setting": "[7]; [10]", "value": "−7 ± 1.2", "unit": "mmHg"}, {"measurement": "renal vasodilation (change in RVC)", "setting": "[7]; [10]", "value": "9 ± 2", "unit": "%"}]}, {"substance": "VPPGFTPFRVD [Bk1, [Val]^1[Thr]^6-bradykinyl-Val-Asp]", "values": [{"measurement": "product released by trypsin pretreatment in vitro", "setting": "trypsin; HPLC and mass spectrometry, data not shown", "value": "release the active Bk fragment"}, {"measurement": "cleavage by trypsin (site)", "setting": "trypsin; pretreatment with trypsin", "value": "cleaved on Arg^9-Val^10"}]}]}
